Data reported in patent US20160017286A1, “IKAROS INHIBITION TO AUGMENT ADOPTIVE T CELL TRANSFER” (THE TRUSTEES OF THE UNIVERSITY OF PENNSYLVANIA, priority 2013, published 2016).

Columns and labels:
[1] = system: human CD8 T cells bearing anti-mesothelin CAR; test: IL2 and IFNγ production in human anti-mesothelin CAR T cells stimulated with mesothelin-coated beads; format: cell-based; conditions: lenalidomide 10 uM vs absence
[2] = system: human CD4 and CD8 T cells; test: IL2 and IFNγ production (flow cytometry) in human T cells stimulated with anti-CD3/anti-CD28 beads; format: cell-based; conditions: lenalidomide 10 uM vs absence

With `Nc1cccc2c1CN(C1CCC(=O)NC1=O)C2=O` (stereo not drawn) [lenalidomide] the “IFNγ production in human CD8 T cells bearing anti-mesothelin CAR” value [1] was “increased both IL2 and IFNγ production”, the “IL2 production in human CD8 T cells bearing anti-mesothelin CAR” value [1] was “increased both IL2 and IFNγ production” and the “IFNγ production in human CD8 T cells bearing anti-mesothelin CAR” value ([1]; listed as Lenalidomide) was “augments IL2 and IFN levels”. The “IL2 production in human CD8 T cells bearing anti-mesothelin CAR” value ([1]; listed as Lenalidomide) was “augments IL2 and IFN levels”, the “IFNγ production in human CD4+ T cells” value [2] was “increased IL2 and IFNγ production” and the “IFNγ production in human CD8+ T cells” value [2] was “increased IL2 and IFNγ production”. For the same compound, the “IL2 production in human CD4+ T cells” value [2] was “increased IL2 and IFNγ production”, the “IL2 production in human CD8+ T cells” value [2] was “increased IL2 and IFNγ production” and the “IFNγ production in human CD4+ T cells” value ([2]; listed as Lenalidomide) was “augments IL2 and IFN levels”. The “IFNγ production in human CD8+ T cells” value ([2]; listed as Lenalidomide) was “augments IL2 and IFN levels”, the “IL2 production in human CD4+ T cells” value ([2]; listed as Lenalidomide) was “augments IL2 and IFN levels” and the “IL2 production in human CD8+ T cells” value ([2]; listed as Lenalidomide) was “augments IL2 and IFN levels”.
